Experimental data published in article PMC12755129 (Blood, 2025).

Target: LRRC8A (SWELL1), LRRC8 volume-regulated anion channel complex (Homo sapiens, UniProt Q8IWT6)
Experiment: patch clamp of hypotonic swell-activated VRAC/ATP currents in MEG-01 cells
Assay type: cell-based

Sequence of LRRC8A (SWELL1), LRRC8 volume-regulated anion channel complex (Q8IWT6 whole entry): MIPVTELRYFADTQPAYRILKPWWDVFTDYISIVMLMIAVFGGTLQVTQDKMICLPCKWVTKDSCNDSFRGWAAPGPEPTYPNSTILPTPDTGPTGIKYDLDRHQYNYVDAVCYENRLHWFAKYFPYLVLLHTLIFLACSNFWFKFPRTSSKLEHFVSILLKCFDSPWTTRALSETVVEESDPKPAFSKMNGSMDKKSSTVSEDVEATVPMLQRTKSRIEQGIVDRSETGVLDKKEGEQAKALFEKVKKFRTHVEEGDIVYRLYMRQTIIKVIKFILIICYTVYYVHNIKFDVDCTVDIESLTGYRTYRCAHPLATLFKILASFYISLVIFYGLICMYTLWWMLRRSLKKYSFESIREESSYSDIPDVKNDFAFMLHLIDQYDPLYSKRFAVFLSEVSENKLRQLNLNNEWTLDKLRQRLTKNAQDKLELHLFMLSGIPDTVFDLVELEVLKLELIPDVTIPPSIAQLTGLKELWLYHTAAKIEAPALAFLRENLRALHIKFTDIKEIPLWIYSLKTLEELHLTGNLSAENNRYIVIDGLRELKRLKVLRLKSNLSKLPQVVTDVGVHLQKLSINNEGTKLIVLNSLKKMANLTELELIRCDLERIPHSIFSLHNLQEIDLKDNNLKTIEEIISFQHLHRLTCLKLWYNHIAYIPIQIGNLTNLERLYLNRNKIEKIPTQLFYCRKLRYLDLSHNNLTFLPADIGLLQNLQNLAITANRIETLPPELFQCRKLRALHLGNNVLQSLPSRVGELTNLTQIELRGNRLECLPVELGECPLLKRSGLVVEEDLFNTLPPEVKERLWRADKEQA
Sequence of LRRC8A (SWELL1), LRRC8 volume-regulated anion channel complex (Q6P9F7 whole entry partner): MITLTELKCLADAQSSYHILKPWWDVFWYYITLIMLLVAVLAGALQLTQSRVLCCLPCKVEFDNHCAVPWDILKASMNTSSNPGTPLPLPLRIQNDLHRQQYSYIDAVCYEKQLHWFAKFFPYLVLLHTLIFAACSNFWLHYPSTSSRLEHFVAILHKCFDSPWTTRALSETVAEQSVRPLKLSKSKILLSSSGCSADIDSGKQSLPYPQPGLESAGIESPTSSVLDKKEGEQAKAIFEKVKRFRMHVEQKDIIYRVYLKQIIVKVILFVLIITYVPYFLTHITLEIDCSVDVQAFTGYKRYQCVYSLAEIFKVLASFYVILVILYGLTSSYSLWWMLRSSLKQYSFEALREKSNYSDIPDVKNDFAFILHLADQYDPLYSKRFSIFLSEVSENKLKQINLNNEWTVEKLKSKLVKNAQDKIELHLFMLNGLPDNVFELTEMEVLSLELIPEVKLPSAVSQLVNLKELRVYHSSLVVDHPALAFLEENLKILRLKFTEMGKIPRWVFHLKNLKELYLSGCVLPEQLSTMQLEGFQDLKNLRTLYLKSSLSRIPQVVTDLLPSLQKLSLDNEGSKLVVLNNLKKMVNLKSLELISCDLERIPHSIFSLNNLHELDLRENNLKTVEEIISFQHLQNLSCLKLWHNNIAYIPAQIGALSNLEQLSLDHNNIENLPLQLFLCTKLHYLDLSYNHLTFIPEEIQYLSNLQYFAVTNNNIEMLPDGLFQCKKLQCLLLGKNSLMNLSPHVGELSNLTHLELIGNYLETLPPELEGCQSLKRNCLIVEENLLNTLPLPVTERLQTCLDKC
Sequence of LRRC8A (SWELL1), LRRC8 volume-regulated anion channel complex (Q8TDW0 whole entry partner): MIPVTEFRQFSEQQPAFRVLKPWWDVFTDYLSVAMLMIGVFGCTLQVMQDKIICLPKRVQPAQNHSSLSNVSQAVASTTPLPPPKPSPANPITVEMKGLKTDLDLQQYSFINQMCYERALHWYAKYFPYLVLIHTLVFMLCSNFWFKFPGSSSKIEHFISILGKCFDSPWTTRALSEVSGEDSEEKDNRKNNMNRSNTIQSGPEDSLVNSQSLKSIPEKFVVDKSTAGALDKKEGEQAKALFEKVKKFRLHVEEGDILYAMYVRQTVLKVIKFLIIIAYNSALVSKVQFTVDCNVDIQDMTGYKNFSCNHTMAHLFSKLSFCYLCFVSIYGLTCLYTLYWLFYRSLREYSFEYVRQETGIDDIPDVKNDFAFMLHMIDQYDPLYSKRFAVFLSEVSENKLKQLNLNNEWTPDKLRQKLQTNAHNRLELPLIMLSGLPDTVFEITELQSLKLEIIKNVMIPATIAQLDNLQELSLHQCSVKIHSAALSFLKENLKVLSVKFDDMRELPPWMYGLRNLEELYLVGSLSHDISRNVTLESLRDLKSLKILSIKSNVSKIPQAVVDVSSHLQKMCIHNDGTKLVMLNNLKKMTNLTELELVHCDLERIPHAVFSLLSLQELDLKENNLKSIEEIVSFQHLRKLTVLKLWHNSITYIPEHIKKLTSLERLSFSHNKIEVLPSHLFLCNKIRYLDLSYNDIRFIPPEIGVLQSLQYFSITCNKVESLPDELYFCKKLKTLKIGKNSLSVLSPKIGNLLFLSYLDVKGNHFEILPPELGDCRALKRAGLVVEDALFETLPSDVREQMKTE
Sequence of LRRC8A (SWELL1), LRRC8 volume-regulated anion channel complex (Q7L1W4 whole entry partner): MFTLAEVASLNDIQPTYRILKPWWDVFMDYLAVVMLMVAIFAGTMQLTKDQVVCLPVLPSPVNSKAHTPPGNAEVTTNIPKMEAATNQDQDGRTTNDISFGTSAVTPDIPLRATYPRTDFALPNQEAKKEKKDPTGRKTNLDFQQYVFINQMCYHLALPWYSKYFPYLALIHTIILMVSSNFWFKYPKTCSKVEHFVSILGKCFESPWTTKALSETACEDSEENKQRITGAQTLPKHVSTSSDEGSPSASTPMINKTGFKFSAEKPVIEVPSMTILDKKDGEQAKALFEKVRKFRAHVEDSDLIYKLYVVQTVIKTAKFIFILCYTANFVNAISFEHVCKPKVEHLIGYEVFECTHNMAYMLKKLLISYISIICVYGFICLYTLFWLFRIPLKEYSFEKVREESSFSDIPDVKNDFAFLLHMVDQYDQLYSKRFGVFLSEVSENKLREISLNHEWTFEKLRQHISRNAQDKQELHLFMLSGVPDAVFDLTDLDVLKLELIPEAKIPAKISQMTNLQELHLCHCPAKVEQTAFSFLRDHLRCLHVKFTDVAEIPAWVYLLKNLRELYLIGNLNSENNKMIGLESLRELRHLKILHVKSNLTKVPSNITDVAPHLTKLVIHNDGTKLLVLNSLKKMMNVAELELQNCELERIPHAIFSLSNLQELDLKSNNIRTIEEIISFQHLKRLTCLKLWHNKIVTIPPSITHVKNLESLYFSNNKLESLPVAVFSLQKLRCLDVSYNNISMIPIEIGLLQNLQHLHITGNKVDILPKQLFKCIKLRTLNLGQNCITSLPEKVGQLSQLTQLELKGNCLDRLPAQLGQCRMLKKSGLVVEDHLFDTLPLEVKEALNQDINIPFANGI

Compound	IC50 [µM]
CCCCC1(C2CCCC2)Cc2cc(OCCCC(=O)O)c(Cl)c(Cl)c2C1=O (centres unmarked) [SN-401, 4-(2-butyl-6,7-dichloro-2-cyclopentylindan-1-on-5-yl)oxybutyric acid]	1.5
SN-406	1
